Test results as given in patent US20120129811A1, “TRICYCLIC INHIBITORS OF PRO-MATRIX METALLOPROTEINASE ACTIVATION” (priority 2010, published 2012).

Tested on: rats with SCW-induced arthritis
Assay: Efficacy in rats with SCW-induced arthritis (ankle thickness, clinical scores)
Assay type: in vivo, rat
Conditions: for Ankle thickness, Day 18 / Clinical Scores (0-8), Day 18: Day 18 (start of treatment); for Ankle thickness, Day 18 / Ankle thickness, Day 26 / Clinical Scores (0-8), Day 18 / Clinical Scores (0-8), Day 26: mean n=5; for % Inh (disease associated increase in ankle thickness): Day 26
Excerpt: A polyarthritis can be induced in female Lewis rats following i.p. administration of streptococcal cell wall (SCW) proteoglycan-polysaccharides (PG-PS) (J Exp Med 1977; 146:1585-1602). The model has an acute phase (days 3-7) that is complement and neutrophil-dependent and that resolves. A chronic erosive phase begins at about day ten and is dependent on the development of specific T cell immunity to the PG-GS, which resists digestion and remains present in synovial macrophages for months. Like rheumatoid arthritis, SCW-induced arthritis is reduced by TNF inhibitors, and the dependence of SCW-induced arthritis on macrophages (Rheumatology; 2001; 40:978-987) and the strong association of rheumatoid arthritis severity with synovial-tissue macrophage counts (Ann Rheum Dis; 2005; 64:834-838) makes SCW-arthritis an attractive model for testing potential therapeutic agents. SCW PG-PS 10S (Beckton Dickinson Cat#210866) suspended in saline was vortexed for 30 seconds and sonicated for 3 min with a probe type sonicator prior to injection. Female Lewis (LEW/N) rats, 5-6 weeks of age (80-100 g) were injected (i.p.) with SCW PG-PS (15 μg of rhamnose/gram BW) in the lower left quadrant of the abdomen using a 1 mL syringe fitted with a 23-gauge needle. Control (disease-free) rats were treated in a similar manner with sterile saline. Control rats were sacrificed on day 5 and groups of SCW-injected rats were sacrificed on day 5 when acute inflammation was maximal or on day 18 when chronic inflammation was established.
To induce arthritis, Female Lewis (LEW/N) rats, 5-6 weeks of age (80-100 g) were injected (i.p.) with SCW PG-PS as described above. Eighteen days later, arthritis was well established. Calipers were used to measure the width (anterior to posterior surface) of the left and right hind ankles of each rat. Each ankle was measured 3 times and averaged, and treatment groups were randomized based on ankle thickness (Table 6). Commencing on day 18, randomized groups of arthritic rats (n=5 rats/group) received vehicle or 5, 20, or 50 mg/kg Compound-α BID by oral gavage. Vehicle consisted of an aqueous mixture containing 2% (v:v) N-methylpyrrolidone, 5% (v:v) glycerine, and 20% (w:v) captisol. Treatment continued daily through the morning of day 26.
Hind paw inflammation clinical scores were assigned based on swelling and erythema.

[1] = 5 mg/kg BID oral gavage Day 18-26
[2] = 20 mg/kg BID oral gavage Day 18-26
[3] = 50 mg/kg BID oral gavage Day 18-26

## Cc1nc(C)c(-c2csc(Nc3cc(S(N)(=O)=O)ccc3OC(C)C)n2)s1 [Compound α, 3-(2′,4′-Dimethyl-[4,5′]bithiazolyl-2-ylamino)-4-isopropoxy-benzenesulfonamide.HBr]
[1]
  Day 26 Δ mm (vs. group 1): 3.67 mm
  Ankle thickness, Day 18: 11.79 mm
  % Inh (disease associated increase in ankle thickness): 27%
  Ankle thickness, Day 26: 10.93 mm
5 mg/kg Day 18-26
  Clinical Scores, Δ Day 18 vs. day 26: −1.20
  Clinical Scores (0-8), Day 18: 8.00
  Clinical Scores (0-8), Day 26: 6.80
[2]
  Day 26 Δ mm (vs. group 1): 3.15 mm
  Ankle thickness, Day 18: 11.76 mm
  % Inh (disease associated increase in ankle thickness): 37%
  Ankle thickness, Day 26: 10.42 mm
20 mg/kg Day 18-26
  Clinical Scores, Δ Day 18 vs. day 26: −2.80
  Clinical Scores (0-8), Day 18: 8.00
  Clinical Scores (0-8), Day 26: 5.20
[3]
  Day 26 Δ mm (vs. group 1): 2.73 mm
  Ankle thickness, Day 18: 11.68 mm
  % Inh (disease associated increase in ankle thickness): 46%
  Ankle thickness, Day 26: 9.99 mm
50 mg/kg Day 18-26
  Clinical Scores, Δ Day 18 vs. day 26: −3.40
  Clinical Scores (0-8), Day 18: 7.80
  Clinical Scores (0-8), Day 26: 4.40
5, 20, 50 mg/kg BID, Day 18-26
  effect on ankle thickness measurements: dose-dependent decrease in ankle thickness measurements
  effect on clinical score measurements: dose dependent decrease in clinical score measurements
